System: peripheral blood mononuclear cells (PBMC)
Assay: Cytokine and immune-function gene expression of PBMC in vitro (qRT-PCR, 41 immune-related genes)
Format: cell-based, human
Conditions: for Ratio of absolute IFNG gene expression in group A vs. Groups B + C pooled: group A day 57 after SADBE
Procedure: After a screening visit at which blood was drawn to test for IgG antibody against HSV-1 and subjects were interviewed for inclusion/exclusion criteria, selected subjects returned for blood draws on day 1. After the blood draw on day 1, subjects in group A only were dosed with SADBE. A petrolatum donut was applied with a cotton swab to form about a 1 cm diameter donut on skin on the inner aspect of the upper arm. Then a separate cotton swab was dipped in a 2% SADBE solution (w/v) in DMSO, and the swab was then used to apply about 10-20 mg of solution over about a 1 cm diameter circle within the petrolatum donut. Immediately after application, the application site was covered with TEGADERM. Subjects were advised to remove the TEGADERM and rinse and wipe the spot three hours later. The group A subjects then returned for blood draws on days 15 and 57 and were queried about adverse events on those dates.
PBMC were isolated using SepMate PBMC isolation tubes (Stem Cell Technologies, Vancouver, Canada) and Ficoll-Paque according to the manufacturer's instructions. PBMC were isolated and suspended in negative control medium at 2 million cells/ml. PBMC suspension (100 μL) was added to 100 μL of medium in quadruplicate in 96-well plates. The plates were prepared in advance and stored at −70° C. The wells were in five different conditions in quadruplicate with these final concentrations after addition of the 100 μL of PBMC suspension in negative control medium. • 1. Negative control in medium (RPMI with glutamine and pen/strep, supplemented with 10% human A/B serum). • 2. Medium plus 16 μg/ml protein from heat-inactivated HSV-1-infected Vero cell extracts. • 3. Medium plus heat-inactivated HSV-1 cell-free virus at a final 7.5 million pfu/ml. • 4. Medium plus Candida cell extract. (Greer item number M15A50, 20,000 pnu/ml allergenic extract mixed molds Candida albicans, was diluted 1/50 into medium). • 5. Positive control, medium plus 10 μg/ml concanavalin A.
Two plates were created for each subject at each collection point. One plate was incubated for 2 days at 37° C. in a humidified 5% CO2 atmosphere and then RNA was isolated from the pooled contents of the 4 wells of a given condition for a specific patient, and the RNA was stored at −70° C. and subsequently used for quantitative real time PCR analysis of gene expression of 41 immune-related genes.
As noted above, after 2 days of growth of the PBMC in a 37° C. humidified 5% CO2 incubator in a 96-well plate, four wells of a single condition (negative control, positive control, heat-inactivated HSV-1, HSV-1-infected cell extracts, or Candida extract) with cells from a single subject (200 μL in each well) were pooled, and the RNA was immediately isolated with Trizol reagent and chloroform by Qiagen RNeasy MiniElute clean up kit Qiagen cat #74204, according to manufacturer's instructions into a final volume of 13 μL, and then flash frozen on powdered dry ice, and stored at −70° C. in aliquots of 3 μL for RNA quantification and 10 μL for PCR analysis.
RNA was preamplified with the Qiagen RT2 PreAMP cDNA synthesis kit (Ref. 330451) and custom RT2 PreAmp primer mix (Ref. 330141) starting with about 50 ng RNA according to the procedure of RT preamp cDNA synthesis handbook date March 2011, pages 17-20. The amplification reactions (final 120 μL) were frozen at −70° C. and used for qPCR analysis the next day.
qPCR was done with the Qiagen RT PCR profiler gene analysis kit (catalog number 330451) using RT2 Sybr Green Rox qPCR Mastermix (24) (Part 330523) and Custom RT2 PCR array plates (Ref. 330171). For this 675 μL 2×RT2 SYBR green mastermix, 51 μL pre-AMP synthesis reaction, and 623 μL RNase free water were mixed, and then 25 μL of the mixture was added to 48 wells on the left or right half of the custom PCR plate. The PCR instrument was Applied Biosystems 7900HT fast real time PCR. […]

[1] = PBMC + Candida extract, group A day 57 vs day 1 (pre-dose), one topical 2% SADBE dose

Compound: CCCCOc1c(OCCCC)c(=O)c1=O [SADBE, 3,4-Dibutoxy-3-cyclobutene-1,2-dione]
- LTA ratio of PBMC absolute gene expression day 57/day 1 (Group A, Neg. control): 0.73
- LYZ ratio of PBMC absolute gene expression day 15/day 1 (Group A, Neg. control): 1.18
- LYZ ratio of PBMC absolute gene expression day 57/day 1 (Group A, Neg. control): 0.55
- MX1 ratio of PBMC absolute gene expression day 15/day 1 (Group A, Neg. control): 0.81
- MX1 ratio of PBMC absolute gene expression day 57/day 1 (Group A, Neg. control): 0.47
- NOD1 ratio of PBMC absolute gene expression day 15/day 1 (Group A, Neg. control): 1.14
- NOD1 ratio of PBMC absolute gene expression day 57/day 1 (Group A, Neg. control): 0.87
- SPP1 ratio of PBMC absolute gene expression day 15/day 1 (Group A, Neg. control): 1.35
- SPP1 ratio of PBMC absolute gene expression day 57/day 1 (Group A, Neg. control): 2.38
- STAT1 ratio of PBMC absolute gene expression day 15/day 1 (Group A, Neg. control): 0.86
- STAT1 ratio of PBMC absolute gene expression day 57/day 1 (Group A, Neg. control): 1.29
- STAT4 ratio of PBMC absolute gene expression day 15/day 1 (Group A, Neg. control): 0.94
- STAT4 ratio of PBMC absolute gene expression day 57/day 1 (Group A, Neg. control): 0.88
- TNF ratio of PBMC absolute gene expression day 15/day 1 (Group A, Neg. control): 0.91
- TNF ratio of PBMC absolute gene expression day 57/day 1 (Group A, Neg. control): 1.15
- TNFSF10 ratio of PBMC absolute gene expression day 15/day 1 (Group A, Neg. control): 0.93
- TNFSF10 ratio of PBMC absolute gene expression day 57/day 1 (Group A, Neg. control): 1
- TNFSF13B ratio of PBMC absolute gene expression day 15/day 1 (Group A, Neg. control): 1.03
- TNFSF13B ratio of PBMC absolute gene expression day 57/day 1 (Group A, Neg. control): 0.67
- CCL2 ratio of PBMC absolute gene expression day 15/day 1 (Group A, Virus): 0.88
- CCL2 ratio of PBMC absolute gene expression day 57/day 1 (Group A, Virus): 1.71
- CCL3 ratio of PBMC absolute gene expression day 15/day 1 (Group A, Virus): 0.84
- CCL3 ratio of PBMC absolute gene expression day 57/day 1 (Group A, Virus): 3.73
- CCL7 ratio of PBMC absolute gene expression day 15/day 1 (Group A, Virus): 0.72
- CCL7 ratio of PBMC absolute gene expression day 57/day 1 (Group A, Virus): 1.81
- CCR5 ratio of PBMC absolute gene expression day 15/day 1 (Group A, Virus): 0.87
- CCR5 ratio of PBMC absolute gene expression day 57/day 1 (Group A, Virus): 1.35
- CD80 ratio of PBMC absolute gene expression day 15/day 1 (Group A, Virus): 0.79
- CD80 ratio of PBMC absolute gene expression day 57/day 1 (Group A, Virus): 1.25
- CXCL2 ratio of PBMC absolute gene expression day 15/day 1 (Group A, Virus): 0.91
- CXCL2 ratio of PBMC absolute gene expression day 57/day 1 (Group A, Virus): 1.58
- CXCL5 ratio of PBMC absolute gene expression day 15/day 1 (Group A, Virus): 0.94
- CXCL5 ratio of PBMC absolute gene expression day 57/day 1 (Group A, Virus): 2.52
- CXCL9 ratio of PBMC absolute gene expression day 15/day 1 (Group A, Virus): 1.42
- CXCL9 ratio of PBMC absolute gene expression day 57/day 1 (Group A, Virus): 2.5
- CXCL10 ratio of PBMC absolute gene expression day 15/day 1 (Group A, Virus): 0.74
- CXCL10 ratio of PBMC absolute gene expression day 57/day 1 (Group A, Virus): 1.00
- CXCL11 ratio of PBMC absolute gene expression day 15/day 1 (Group A, Virus): 0.34
- CXCL11 ratio of PBMC absolute gene expression day 57/day 1 (Group A, Virus): 0.40
- DDX58 ratio of PBMC absolute gene expression day 15/day 1 (Group A, Virus): 0.66
- DDX58 ratio of PBMC absolute gene expression day 57/day 1 (Group A, Virus): 0.95
- FOXP3 ratio of PBMC absolute gene expression day 15/day 1 (Group A, Virus): 1.27
- FOXP3 ratio of PBMC absolute gene expression day 57/day 1 (Group A, Virus): 2.46
- GATA3 ratio of PBMC absolute gene expression day 15/day 1 (Group A, Virus): 0.89
- GATA3 ratio of PBMC absolute gene expression day 57/day 1 (Group A, Virus): 0.32
- ICAM1 ratio of PBMC absolute gene expression day 15/day 1 (Group A, Virus): 1.01
- ICAM1 ratio of PBMC absolute gene expression day 57/day 1 (Group A, Virus): 1.07
- IFNA1 ratio of PBMC absolute gene expression day 15/day 1 (Group A, Virus): 0.58
- IFNA1 ratio of PBMC absolute gene expression day 57/day 1 (Group A, Virus): 1.34
- IFNB1 ratio of PBMC absolute gene expression day 15/day 1 (Group A, Virus): 0.78
- IFNB1 ratio of PBMC absolute gene expression day 57/day 1 (Group A, Virus): 0.87
- IFNG ratio of PBMC absolute gene expression day 15/day 1 (Group A, Virus): 1.91
- IFNG ratio of PBMC absolute gene expression day 57/day 1 (Group A, Virus): 11.01
- IL1B ratio of PBMC absolute gene expression day 15/day 1 (Group A, Virus): 0.77
- IL1B ratio of PBMC absolute gene expression day 57/day 1 (Group A, Virus): 5.09
- IL1R1 ratio of PBMC absolute gene expression day 15/day 1 (Group A, Virus): 0.74
- IL1R1 ratio of PBMC absolute gene expression day 57/day 1 (Group A, Virus): 0.97
- IL1RN ratio of PBMC absolute gene expression day 15/day 1 (Group A, Virus): 0.77
- IL1RN ratio of PBMC absolute gene expression day 57/day 1 (Group A, Virus): 1.48
- IL2 ratio of PBMC absolute gene expression day 15/day 1 (Group A, Virus): 1.43
- IL2 ratio of PBMC absolute gene expression day 57/day 1 (Group A, Virus): 2.11
- IL4 ratio of PBMC absolute gene expression day 15/day 1 (Group A, Virus): 0.80
- IL4 ratio of PBMC absolute gene expression day 57/day 1 (Group A, Virus): 1.32
- IL5 ratio of PBMC absolute gene expression day 15/day 1 (Group A, Virus): 0.76
- IL5 ratio of PBMC absolute gene expression day 57/day 1 (Group A, Virus): 0.56
- IL8 ratio of PBMC absolute gene expression day 15/day 1 (Group A, Virus): 1.13
- IL8 ratio of PBMC absolute gene expression day 57/day 1 (Group A, Virus): 3.3
- IL10 ratio of PBMC absolute gene expression day 15/day 1 (Group A, Virus): 0.74
- IL10 ratio of PBMC absolute gene expression day 57/day 1 (Group A, Virus): 2.29
- IL12A ratio of PBMC absolute gene expression day 15/day 1 (Group A, Virus): 0.94
- IL12A ratio of PBMC absolute gene expression day 57/day 1 (Group A, Virus): 1.48
- IL12B ratio of PBMC absolute gene expression day 15/day 1 (Group A, Virus): 0.59
- IL12B ratio of PBMC absolute gene expression day 57/day 1 (Group A, Virus): 2.08
- IL13 ratio of PBMC absolute gene expression day 15/day 1 (Group A, Virus): 1.43
- IL13 ratio of PBMC absolute gene expression day 57/day 1 (Group A, Virus): 3.02
- IL15 ratio of PBMC absolute gene expression day 15/day 1 (Group A, Virus): 1.01
- IL15 ratio of PBMC absolute gene expression day 57/day 1 (Group A, Virus): 1.54
- IL16 ratio of PBMC absolute gene expression day 15/day 1 (Group A, Virus): 0.84
- IL16 ratio of PBMC absolute gene expression day 57/day 1 (Group A, Virus): 0.82
- JAK2 ratio of PBMC absolute gene expression day 15/day 1 (Group A, Virus): 0.84
- JAK2 ratio of PBMC absolute gene expression day 57/day 1 (Group A, Virus): 1.26
- LTA ratio of PBMC absolute gene expression day 15/day 1 (Group A, Virus): 1.26
- LTA ratio of PBMC absolute gene expression day 57/day 1 (Group A, Virus): 1.84
- LYZ ratio of PBMC absolute gene expression day 15/day 1 (Group A, Virus): 1.04
- LYZ ratio of PBMC absolute gene expression day 57/day 1 (Group A, Virus): 0.53
- MX1 ratio of PBMC absolute gene expression day 15/day 1 (Group A, Virus): 0.49
- MX1 ratio of PBMC absolute gene expression day 57/day 1 (Group A, Virus): 0.66
- NOD1 ratio of PBMC absolute gene expression day 15/day 1 (Group A, Virus): 0.85
- NOD1 ratio of PBMC absolute gene expression day 57/day 1 (Group A, Virus): 1.14
- SPP1 ratio of PBMC absolute gene expression day 15/day 1 (Group A, Virus): 1.64
- SPP1 ratio of PBMC absolute gene expression day 57/day 1 (Group A, Virus): 15.29
- STAT1 ratio of PBMC absolute gene expression day 15/day 1 (Group A, Virus): 0.80
- STAT1 ratio of PBMC absolute gene expression day 57/day 1 (Group A, Virus): 1.41
- STAT4 ratio of PBMC absolute gene expression day 15/day 1 (Group A, Virus): 1.03
- STAT4 ratio of PBMC absolute gene expression day 57/day 1 (Group A, Virus): 1.69
- TNF ratio of PBMC absolute gene expression day 15/day 1 (Group A, Virus): 0.97
- TNF ratio of PBMC absolute gene expression day 57/day 1 (Group A, Virus): 1.19
- TNFSF10 ratio of PBMC absolute gene expression day 15/day 1 (Group A, Virus): 0.68
- TNFSF10 ratio of PBMC absolute gene expression day 57/day 1 (Group A, Virus): 1.01
- TNFSF13B ratio of PBMC absolute gene expression day 15/day 1 (Group A, Virus): 0.77
- TNFSF13B ratio of PBMC absolute gene expression day 57/day 1 (Group A, Virus): 1.23
- Ratio of absolute IFNG gene expression in group A vs. Groups B + C pooled (HSV-infected cell extracts): 1.896
- Ratio of absolute IFNG gene expression in group A vs. Groups B + C pooled (Neg Control medium): 1.190
- ratio of absolute expression in A57 vs. A1: CCL2 [1]: 1.16
- ratio of absolute expression in A57 vs. A1: CCL3 [1]: 1.79
- ratio of absolute expression in A57 vs. A1: CCL7 [1]: 2.03
- ratio of absolute expression in A57 vs. A1: CCR5 [1]: 1.42
- ratio of absolute expression in A57 vs. A1: CD80 [1]: 1.57
- ratio of absolute expression in A57 vs. A1: CXCL2 [1]: 1.1
- ratio of absolute expression in A57 vs. A1: CXCL5 [1]: 1.45
- ratio of absolute expression in A57 vs. A1: CXCL9 [1]: 14.21
- ratio of absolute expression in A57 vs. A1: CXCL10 [1]: 12.8
- ratio of absolute expression in A57 vs. A1: CXCL11 [1]: 2.53
- ratio of absolute expression in A57 vs. A1: DDX58 [1]: 1.29
